{
  "source": "BindingDB's records for patent WO2021069705",
  "about": "(MONTE ROSA THERAPEUTICS AG, 2021)",
  "target": "Protein cereblon (Homo sapiens, UniProt Q96SW2)",
  "sequence (Q96SW2 whole entry)": "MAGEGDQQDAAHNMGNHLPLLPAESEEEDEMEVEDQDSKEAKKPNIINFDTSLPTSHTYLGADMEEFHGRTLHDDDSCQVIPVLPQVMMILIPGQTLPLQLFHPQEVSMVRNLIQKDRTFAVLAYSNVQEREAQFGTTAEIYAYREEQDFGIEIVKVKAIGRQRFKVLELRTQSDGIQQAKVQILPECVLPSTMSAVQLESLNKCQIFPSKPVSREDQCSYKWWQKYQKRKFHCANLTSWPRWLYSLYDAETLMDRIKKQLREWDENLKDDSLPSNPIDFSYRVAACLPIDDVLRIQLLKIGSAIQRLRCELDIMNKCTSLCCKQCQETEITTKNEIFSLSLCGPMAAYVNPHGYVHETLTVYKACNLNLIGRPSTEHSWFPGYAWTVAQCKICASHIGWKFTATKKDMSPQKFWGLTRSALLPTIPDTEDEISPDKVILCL",
  "assay": "Protocol for Fluorescent Polarization assay",
  "description": "Compound activity was monitored in a fluorescence polarization (FP) homogeneous assay using 1 -[5-({2-[2-(2-{[2-(2,6-dioxopiperidin-3-yl)-1 ,3-dioxo-2,3-dihydro-1 H-isoindol-4-yl]oxy}acetamido)ethoxy]ethyl}carbamoyl)pentyl]-3,3-dimethyl-2-[(1 E,3E)-5-[(2E)-1 ,3,3-trimethyl-5-sulfo-2,3-dihydro-1 H-indol-2-ylidene]penta-1 ,3-dien-1 -yl]-3H-indol-1 -ium-5-sulfonate as a fluorescent probe. Unless otherwise stated, all reagents were purchased from Sigma Aldrich. Enzymatic reactions were conducted in Perkin-Elmer Black 384 well ProxiPlate Plus (catalogue no. 6008269) in 10 μL total volume. Full length wild-type cereblon CRBN (80.0 nM, 10 μL) was incubated in assay buffer containing 20 mM HEPES (pH 8.0), 1 50 NaCl, 0.5 mM TCEP and 0.05% Tween 20 in the presence or absence of compound (300 nL). Inhibitors were stored as 10 mM DMSO stocks in an inert environment (low humidity, dark, low oxygen, room temperature) using the Storage Pod System. Compounds and DMSO were dispensed using the Echo E5XX (Labcyte Inc. USA) to give concentrations from 300 to 0.937 or 3000 to 9.3 nM in a 1 2 data point curve. […] FP was measured after a period of 1 2 hours using a Pherastar plate reader (BMG Labtech, Germany) exciting at 590 nm and measuring the amount of parallel and perpendicular light at 675 nm. […]",
  "data": [
    {"compound": "O=C1CCC(N2Cc3ccc(CNC(=O)Nc4ccc(Br)cc4)cc3C2=O)C(=O)N1", "note": "(stereo unspecified) [WO2021069705, Compound 9]", "values": [
      {"measurement": "IC50", "value": 617, "unit": "nM"}
    ]}
  ]
}
